These results are taken from patent EP2628732A1, “Novel crystalline form of rilpivirine hydrochloride” (Sandoz AG, priority 2012, dated 2013).

The nature of data set [1]: Solubility determination in 0.01 N aqueous HCl (gravimetric, suspensions stirred, sampled after 30 min). It counts as physicochemical. The note with it: 0.01 N aqueous HCl at 25 ± 0.1 °C, samples taken after 30 min, monohydrochloride. The procedure:
The solubility data of form E of the present invention and forms A and C of EP1632232 B1 in 0.01 N aqueous HCl at 25 ± 0.1 °C are presented in table 1. Table 1: Solubility data in 0.01 N aqueous HCl at 25 ± 0.1 °C Suspensions of forms A, C and E in 0.01 N aqueous HCl were stirred in closed vessels with a diameter of 25 mm in a thermostatic water bath at 25 ± 0.1 °C. Before the solute was added the solvent was equilibrated to the temperature. Three samples of each modification were taken with […] filter holders attached to volumetric pipettes (2 mL) via a small glass tube after 30 min. They were sucked through Millipore membrane filters (0.45 μm) and 2 mL of the clear solution were poured in vessels which had been dried and tared before. The hydrochloric acid was evaporated in a drying chamber at 60 °C for approximately 15 h before the temperature was further increased to 80 °C for approximately 3 h. To remove residue water, the vessels were subsequently dried at 110 °C and 60 mbar for approximately 3 h. Afterwards the vials with the residue were cooled to room temperature in an exsiccator and weighed on an analysis balance (Mettler AT250). The difference in weight to the tare weight was then measured to determine the solubilities.

Data set [2] in a line: Water content at defined relative humidity. The data set is classed as physicochemical.

With `Cc1cc(C=CC#N)cc(C)c1Nc1ccnc(Nc2ccc(C#N)cc2)n1.Cl` [Form A, 4-[[4-[[4-(2-Cyanoethenyl)-2,6-dimethylphenyl]amino]-2-pyrimidinyl]amino]benzonitrile monohydrochloride], the Solubility in data set [1] (listed as A) came to 80 µg/mL.

On to `Cc1cc(C=CC#N)cc(C)c1Nc1ccnc(Nc2ccc(C#N)cc2)n1.Cl` [Form E, 4-[[4-[[4-(2-Cyanoethenyl)-2,6-dimethylphenyl]amino]-2-pyrimidinyl]amino]benzonitrile monohydrochloride], for which the water entry in data set [2] (at a relative humidity of about 0 %) is reported as “about 0%”; in data set [2] (at a relative humidity of about 90 %), “about 0.8%”. In addition, in data set [1] (listed as E), the Solubility was found to be 270 µg/mL.

`Cc1cc(C=CC#N)cc(C)c1Nc1ccnc(Nc2ccc(C#N)cc2)n1.Cl` [Form C, 4-[[4-[[4-(2-Cyanoethenyl)-2,6-dimethylphenyl]amino]-2-pyrimidinyl]amino]benzonitrile monohydrochloride] yielded a Solubility in data set [1] (listed as C) of 100 µg/mL.
